Data taken from patent publication US12194071B2, “Methods and compositions with purified Bombyx mori cocoon silk peptide fiber and refined Buglossoides arvensis seed oil providing anti-inflammatory effects and neuroprotection for disease states” (Brain Health Holding LLC, priority 2019, dated 2025).

Tests used:
[1] = tested on: TNF-α; assay: LPS-induced TNF-α production in RAW264.7 cells (ELISA); type: cell-based, mouse; settings: for reduction in LPS-induced TNF-α production: study challenging RAW264.7 cells in 3 batches; for reduction in LPS-induced TNF-α production, RAW264.7 cells: omega-3/omega-6 study with DHA EE, EPA EE, SDA EE (toxic amount of SDA EE)
Method: RAW264.7 cells were seeded in 96 well plates at a density of 20,000 cells/well. On day 2, the cells were serum starved for 24 h in DMEM. Then, the cells were pre-treated with 60 μg/ml of Peptylin® alone or in combination with 50 μM or 100 μM NeurXcel® EE diluted in DMEM. Appropriate vehicle controls have been included, i.e. 0.5% EtOH+1.2% H2O. On day 4 the cells were LPS-induced (500 ng/ml) for 1.5 h and the supernatants were collected. A WST-8 assay was performed to measure cell viability and the supernatants were used for an ELISA assay to measure TNF-α levels. All the experiments were carried out with 9 replicates (for control and LPS treated cells) or 24 replicates (for cells treated with NX and/or PT). A t-test was used to compare the media of TNF-α levels between the treatment of NX alone and in combination with PT.
3.4 Experimental procedure RAW264.7 cells were seeded in 96-well plates at a density of 20,000 cells/well in DMEM+10% FBS. The next day, the cells were washed once with DPBS and serum starved for 24 h in 150 μL of DMEM. Then, the cells were treated with 150 μL of 60 μg/ml of Peptylin® and 100 or 50 μM NeurXcel® EE that were used either alone or in combination. Appropriate vehicle controls were also included in the assay, i.e. 0.5% ethanol+1.2% H2O. After 24 h, the cells were incubated for 1.5 h with 10 μL of LPS (7500 ng/ml) to reach a final concentration of 500 ng/ml. After the incubation, the supernatants were collected and a WST-8 assay was carried out. CCK-8 reagent (WST-8) was diluted 1:10 in DMEM media and 100 μL were added to each well and the plate was incubated at 37° C. After 15 minutes the absorbance was measured at 450 nm using the Synergy II microplate reader. WST-8 is bioreduced by cellular dehydrogenases to an orange formazan product that is soluble in tissue culture medium. The amount of formazan produced is directly proportional to the number of living cells. The ELISA assay was performed following the manufacturer's instructions. The TNF-α levels produced under each condition were normalized to the corresponding vehicle control (with or without EtOH). All the experiments were carried out with 9 replicates (for control and LPS treated cells) or 24 replicates (for cells treated with NX and/or PT). […] Using Microsoft Excel the following formula was used to calculate the p-value: =T.TEST (array1, array2, tails, type), where array1 corresponds to the TNF-α values for one treatment, array2 corresponds to TNF-α values for the co-treatment, one-tail test has been considered and type is 2 (two sample equal variance t-test). A p-value of 0.05 was used as the cutoff for significance.
After the treatments, the supernatants were collected and an ELISA assay was performed. First, the standard curve was generated (FIG. 43).
The TNF-α standard was measured in 8 serial 1:2 dilutions ranging from 0-4000 pg/ml. TNF-α production was measured by ELISA. Control: cells maintained in DMEM; LPS: LPS-induced cells in DMEM+0.5% EtOH+1.2% H2O; PT: cells pre-treated with 60 μg/ml of Peptylin® for 24 h; 50 NX and 100 NX: cells treated with 50 or 100 μM NX for 24 h; 50NX+PT and 100NX+PT: cells pre-treated with 50 or 100 μM NX and 60 μg/ml PT for 24 h. Then the cells were induced with 500 ng/ml LPS for 1.5 h. The data represent the mean±SD of an experiment performed in nine replicates (for Cntr and LPS) or 24 replicates (for PT and NX treatments). NS: non-significant; *** p<0.001.

[2] = tested on: TNF-alpha; assay: LPS-induced TNF-alpha production in BV-2 cells; type: cell-based; settings: compared with LPS controls
[3] = tested on: Reactive Oxygen Species (ROS) within SH-SY5Y neuroblastoma cells; assay: H2O2-induced Reactive Oxygen Species generation in SH-SY5Y cells (DCF-DA); type: cell-based, human; settings: Example 12
Method: Reactive Oxygen Species (ROS) within cells can be quantified by indexing using the fluorescent probe 2′,7′-dichlorofluroescin diacetate (DCF-DA) (Sigma-Aldrich, USA). When oxidized to the reactive oxygen metabolite, the DCF-DA can be excited at 485 nm and releases fluorescence at 530 nm.
SH-SY5Y neuroblastoma cells were incubated with 100 μl of 10% 1-BS/MEM in a 5×10^4 cells/well 96-well plate and cultured 24 hours, as in Example 1. The 10% FBS/MEM was removed and 1% FBS/MEM added to the cells. Composition A, B, C, D, or E was administered, and then DCF-DA in keeping with the DCF-DA assay described above.
After 4 hours, a 0.25 uM solution of H2O2 (a toxicity-inducing substance) was administered. Incubation time was for 2 hours before fluorescence test. Subsequently, fluorescence was measured at 530 nm to assess the level of active oxygen production.
In Examples 8 and 9, SH-SY5Y cells were exposed in separate, parallel models to H2O2 and FeSO4 to induce controlled cell death, but instead of analyzing cell viability in the presence of various active compounds, reactive oxygen species (ROS) generation was measured in the presence of various formulations, following peer-reviewed published methods. […]
Reactive oxygen species generation induced by H2O2 was measured by incubation with a fluorescent probe 2′,7′-dichlorofluorescin diacetate (DCF-DA). […]

Structure (SMILES): CCCCC/C=C\C/C=C\C/C=C\CCCCCCC(=O)OCC [DGLA EE]
- reduction in LPS-induced TNF-α production [1]: 11-18%

Structure (SMILES): CC/C=C\C/C=C\C/C=C\C/C=C\C/C=C\C/C=C\CCC(=O)OCC [DHA EE]
- reduction in LPS-induced TNF-α production, RAW264.7 cells [1]: 21-42%

Structure (SMILES): CC/C=C\C/C=C\C/C=C\C/C=C\C/C=C\CCCC(=O)OCC [EPA EE, eicosapentaenoic acid, ethyl ester]
- reduction in LPS-induced TNF-α production, RAW264.7 cells [1]: 32%
- reduction in LPS-induced TNF-alpha production, BV-2 cells ([2]; another study): 18%
- reduction in LPS-induced TNF-alpha production, BV-2 cells ([2]; study in which EPA EE gave 25%): 25%
- reduction in LPS-induced TNF-alpha production, BV-2 cells ([2]; third study): 27-33%

Structure (SMILES): CC(=O)N[C@@H](CS)C(=O)O [NAC, N-Acetyl-L-cysteine]
- restoration of SH-SY5Y cells (positive control group) [3]: restored to normal levels

Structure (SMILES): CC/C=C\C/C=C\C/C=C\C/C=C\CCCCC(=O)OCC [SDA EE]
- reduction in LPS-induced TNF-α production, RAW264.7 cells [1]: 35-71%
- reduction in LPS-induced TNF-α production [1]: 16-24%
